In article PMC6646405, “A quantitative, high-throughput method identifies protein–glycan interactions via mass spectrometry” (Communications Biology, 2019):
Several values for one entry are separate records, joined by “and”; a condition that tells them apart may be missing. Identical values can stand only once.

Tests used:
human siglec-2 (CD22) = molecular target: T1, human siglec-2 (CD22) (Homo sapiens, UniProt P20273); test: CUPRA library screening and affinity, siglec-2; type: binding; settings: for average DI: mean of 4 DIi values
T1 construct: Residues 1–332 of human Siglec-2 (MW 140 kDa, purity > 95%) were cloned in frame with human IgG1 Fc and a C-terminal His6; made in house
T1 sequence (P20273 20-332): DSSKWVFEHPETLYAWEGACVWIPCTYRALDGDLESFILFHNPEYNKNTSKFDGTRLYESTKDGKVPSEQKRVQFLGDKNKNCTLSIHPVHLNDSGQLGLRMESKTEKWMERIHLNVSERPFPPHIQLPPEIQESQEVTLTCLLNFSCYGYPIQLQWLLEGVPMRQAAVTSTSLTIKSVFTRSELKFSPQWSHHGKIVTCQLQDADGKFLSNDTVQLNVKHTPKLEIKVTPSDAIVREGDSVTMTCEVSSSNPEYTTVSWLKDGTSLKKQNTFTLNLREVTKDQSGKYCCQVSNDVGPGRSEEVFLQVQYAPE

[1] = molecular target: Cholera toxin B subunit homopentamer (CTB5) (Vibrio cholerae serotype O1, UniProt P01556); type: binding
[2] = molecular target: streptavidin homotetramer (S4) (Streptomyces avidinii, UniProt P22629); test: CUPRA library screening against negative control streptavidin; type: binding; design: key: ratio change on GBP addition; ~1.0 = no binding (negative control); settings: depletion index, 50 μM streptavidin
[3] = molecular target: human carbonic anhydrase type 1 (Homo sapiens, UniProt P00915); test: Direct ESI-MS affinity of OSmod for the universal proxy protein (UniPproxy)
[4] = molecular target: Sambucus nigra lectin (SNA) (Sambucus nigra, UniProt Q41358); type: binding
[5] = test system: Maackia amurensis lectins (MAA); test: CUPRA library screening and affinity, MAA; type: binding; settings: 50uM MAA; mean of 4 DIi values, FigS3c
Protocol: (§1) Unless otherwise noted, the measurements were performed at 25 °C. […] We identified specific ligands from the depletion index (DIi, Eq. 1) – the change in the fractional abundance (Fi, Eq. 2) ratio of ligand i-bound and free ^UniPproxy ions upon addition of GBP. Prior to calculating Fi, we treated each mass spectrum with the Sliding Window Adducts Removal Method (SWARM)[18] to remove contributions to the abundance of ^UniPproxy -OS^mod complex ions from adducts, formed by the ESI process, of neighbouring complex ions (Supplementary Fig. 2). Shown in Fig. 2a is a summary of the DIi measured by CUPRA screening of the 66-component library against S4 (50 μM). As expected, the average DIi for this negative control is close to 1.0 (0.99 ± 0.03). In contrast, CUPRA screening against the positive controls produced decreases in DIi for one or more of the library components. […] Application of CUPRA to human CD22, part of an important class of Neu5Ac-binding GBPs implicated in both innate and adaptive immunity, correctly identified HMO08 as a ligand (Supplementary Fig. 4a). CUPRA screening of MAA at high concentration (50 μM) identified HMO03 and GA06 as ligands. […]
(§2) Using SWARM-treated mass spectra, DIi was calculated for each ligand from the ratio of the fractional abundances (Fi) of ligand (i)-bound and free ^UniPproxy ions in the presence (+GBP) and absence (-GBP) of GBP, Eqs. […]

[6] = test system: family 51 carbohydrate binding module (CBM51); test: CUPRA library screening and affinity, CBM51; settings: 25uM CBM51; mean of 4 DIi values, FigS3a
Protocol: as §1, §2

Sambucus nigra lectin (SNA), sequence (Q41358 309-570 limits assumed): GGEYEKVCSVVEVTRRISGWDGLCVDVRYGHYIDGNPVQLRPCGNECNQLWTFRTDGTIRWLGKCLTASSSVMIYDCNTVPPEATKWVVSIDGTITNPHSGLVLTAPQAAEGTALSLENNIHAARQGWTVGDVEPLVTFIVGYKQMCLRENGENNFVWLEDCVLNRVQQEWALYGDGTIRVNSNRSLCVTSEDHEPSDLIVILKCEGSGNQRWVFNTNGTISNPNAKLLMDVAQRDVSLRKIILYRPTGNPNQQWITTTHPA
Sambucus nigra lectin (SNA), sequence (Q41358 29-289 partner limits assumed): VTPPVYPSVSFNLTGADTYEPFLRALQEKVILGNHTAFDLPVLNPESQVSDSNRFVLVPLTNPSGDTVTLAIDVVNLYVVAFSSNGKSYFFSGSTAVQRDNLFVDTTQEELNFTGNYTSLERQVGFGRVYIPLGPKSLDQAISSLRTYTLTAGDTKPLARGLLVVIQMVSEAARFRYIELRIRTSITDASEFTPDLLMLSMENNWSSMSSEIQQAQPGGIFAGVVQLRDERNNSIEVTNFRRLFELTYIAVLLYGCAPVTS
streptavidin homotetramer (S4), sequence (P22629 25-183): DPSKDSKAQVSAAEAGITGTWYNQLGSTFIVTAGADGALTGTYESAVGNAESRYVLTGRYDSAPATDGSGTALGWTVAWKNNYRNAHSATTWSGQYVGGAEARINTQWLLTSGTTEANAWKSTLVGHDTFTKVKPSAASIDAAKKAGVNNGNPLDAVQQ
Cholera toxin B subunit homopentamer (CTB5), sequence (P01556 22-124 limits assumed): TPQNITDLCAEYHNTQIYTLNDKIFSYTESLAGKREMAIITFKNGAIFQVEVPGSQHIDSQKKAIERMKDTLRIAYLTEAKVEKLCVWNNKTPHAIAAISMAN
human carbonic anhydrase type 1, sequence (P00915 whole entry): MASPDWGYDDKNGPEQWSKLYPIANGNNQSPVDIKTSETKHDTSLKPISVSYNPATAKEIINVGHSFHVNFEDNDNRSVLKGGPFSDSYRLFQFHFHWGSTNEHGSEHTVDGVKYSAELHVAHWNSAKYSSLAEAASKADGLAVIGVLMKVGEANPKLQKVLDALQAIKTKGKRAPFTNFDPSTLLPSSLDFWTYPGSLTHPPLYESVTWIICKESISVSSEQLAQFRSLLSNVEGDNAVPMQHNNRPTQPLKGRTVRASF

## CC(=O)N(CCOCCOCCNC(=O)C(Cc1ccccc1)NC(=O)C(Cc1ccccc1)NC(=O)CCCC(=O)NCCc1ccc(S(N)(=O)=O)cc1)C1OC(CO)C(OC2OC(CO)C(O)C(O)C2O)C(O)C1O (stereo not drawn) [HMO01, Galβ1-4Glc-CL]
Human siglec-2 (CD22); 25uM CD22
  average DI: 1.013
Human siglec-2 (CD22); 25uM CD22, replicate column 1 of 4
  DIi(25uM CD22): 1.023
Human siglec-2 (CD22); 25uM CD22, replicate column 2 of 4
  DIi(25uM CD22): 1.029
Human siglec-2 (CD22); 25uM CD22, replicate column 3 of 4
  DIi(25uM CD22): 0.9963
Human siglec-2 (CD22); 25uM CD22, replicate column 4 of 4
  DIi(25uM CD22): 1.002
Human siglec-2 (CD22); 25uM CD22 at 0C
  average DI: 1.021
Human siglec-2 (CD22); 25uM CD22 at 0C, replicate column 1 of 4
  DIi(25uM CD22 at 0C): 1.003
Human siglec-2 (CD22); 25uM CD22 at 0C, replicate column 2 of 4
  DIi(25uM CD22 at 0C): 1.007
Human siglec-2 (CD22); 25uM CD22 at 0C, replicate column 3 of 4
  DIi(25uM CD22 at 0C): 1.036
Human siglec-2 (CD22); 25uM CD22 at 0C, replicate column 4 of 4
  DIi(25uM CD22 at 0C): 1.04
[1]
  DIi(2uM CTB5): 0.9935 and 0.9881 and 0.9983 and 0.9929
  DIi(10uM CTB5): 0.9693 and 0.964 and 0.9533 and 0.9481
  DIi(10uM CTB5 at 0C): 1.005 and 0.995 and 1.012 and 1.002
  average DI: 0.9932 and 0.9587 and 1.004
[2]; mean of 4
  average DI: 0.9888
[2]; measurement 1 of 4
  DIi(50uM S4): 0.9878
[2]; measurement 2 of 4
  DIi(50uM S4): 0.986
[2]; measurement 3 of 4
  DIi(50uM S4): 0.9917
[2]; measurement 4 of 4
  DIi(50uM S4): 0.9898
[3]
  Kd: 5.1 ± 1.4 µM
[4]
  DIi(5uM SNA): 1.0284 and 1.03 and 1.033 and 1.035
  average DI: 1.032
[5]
  average DI: 1.065
[6]
  average DI: 1.026
